# Measurements taken from patent US6727237B2, “Inhibitors of bacterial NAD synthetase” (priority 1998, dated 2004).
# What was measured:
# [1] = target: T1, bacterial NAD synthetase enzyme (Bacillus subtilis, UniProt P08164); experiment: biochemical; type: biochemical; conditions: compound at 0.2 mM (Table 312A)
# T1 sequence (P08164 2-272 limits assumed): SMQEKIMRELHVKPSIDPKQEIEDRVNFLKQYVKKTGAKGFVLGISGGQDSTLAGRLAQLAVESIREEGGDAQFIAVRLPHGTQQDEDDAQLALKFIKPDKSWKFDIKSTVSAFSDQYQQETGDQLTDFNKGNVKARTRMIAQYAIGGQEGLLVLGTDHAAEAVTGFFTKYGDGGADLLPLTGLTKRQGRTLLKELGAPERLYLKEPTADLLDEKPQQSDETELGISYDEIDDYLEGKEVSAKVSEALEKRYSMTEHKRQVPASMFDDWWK
# [2] = system: Escherichia coli K-12 W3110 (CGSC#4474); experiment: Standard antibiotic paper disk assay, zone of inhibition; type: cell-based; conditions: 250 μg on 6 or 7 mm paper disk; minimal-glucose plate; gram −
# Protocol: (§1) To determine initially if a compound found active in the assays, Compound 864, was also an effective inhibitor of a variety of different bacteria, a standard antibiotic assay was performed. In this assay 250 μg of Compound 864 ([…] in DMSO) was spotted on 6 or 7 mm paper disks. Each disk was placed on separate 30 ml solid-medium plates layered with bacteria Blood agar plates were used for Streptococcus, and minimal-glucose plates were used for the other microorganisms in Table 306. DMSO controls provided negative results.
# [3] = system: Streptococcus pneumoniae WU2; experiment: as above; type: cell-based; conditions: 250 μg on 6 or 7 mm paper disk; blood agar plate; gram +
# Protocol: as §1
# Bacillus subtilis A700 = experiment: as above; type: cell-based; conditions: 250 μg on 6 or 7 mm paper disk; minimal-glucose plate; gram +
# Protocol: as §1
# [4] = system: Salmonella typhimurium LT2 TT366; experiment: as above; type: cell-based; conditions: 250 μg on 6 or 7 mm paper disk; minimal-glucose plate; gram −
# Protocol: as §1
# [5] = system: Escherichia coli K-12 MG1655 (CGSC#6300); experiment: as above; type: cell-based; conditions: 250 μg on 6 or 7 mm paper disk; minimal-glucose plate; gram −
# Protocol: as §1
# [6] = system: Streptococcus pneumonia D39; experiment: as above; type: cell-based, Streptococcus pneumoniae; conditions: 250 μg on 6 or 7 mm paper disk; blood agar plate; gram +
# Protocol: as §1
# [7] = system: Staphylococcus epidermitis; experiment: Bacterial growth inhibition screen in LB media (absorbance 595 nm), percent inhibition; conditions: S. epidermitis; concentration screened 100 uM
smiles,measurement,setting,value
C[n+]1cccc(C(=O)OCCCCCn2ccc3cc([N+](=O)[O-])ccc32)c1 [Compound 864],% Inhibition,[1],19.33%
same,ZONE OF INHIBITION,[2],9.5 mm
same,ZONE OF INHIBITION,[3],15 mm
same,ZONE OF INHIBITION,Bacillus subtilis A700,19.5 mm
same,ZONE OF INHIBITION,[4],10 mm
same,ZONE OF INHIBITION,[5],9.5 mm
same,ZONE OF INHIBITION,[6],12 mm
same,% Inhibition,[7],87.03%
